# Reference: patent publication US7422886B2, “Method for determining modulation of P110Δ activity” (Ludwig Institute for Cancer Research, priority 1996, dated 2008)
# pIC50: −log10 of the molar value.
# Columns and labels:
# p110δ/p85α = p110δ/p85α (Homo sapiens, UniProt O00329, S675R); test: Lipid kinase assay of drug effects on p110δ/p85α; type: biochemical; conditions: PtdIns substrate, 40 μM ATP, 10 min at 25° C., 1% DMSO; read-out: IC50, inhibition of lipid kinase activity
# Experimental: (§1) Lipid kinase activity was performed essentially as described by Whitman et al. (1985). Lipid kinase assay buffer was 20 mM Tris HCl pH 7.4, 100 mM NaCl and 0.5 mM EGTA. Lipids were purchased from Sigma. The final concentration of ATP and Mg^2+ in the assay were routinely 0.5 and 3.5 mM, respectively, while lipids were used at 0.2-0.4 mM concentration. Unless otherwise indicated, kinase reaction was for 10 min at 37° C. The solvent for TLC separation of reaction products was propan-1-ol/2 M acetic acid/5 M H3PO4 (65:35:1). Assays of drug effects on the kinase were performed using PtdIns as substrate in the presence of 40 μM ATP (final) for 10 min at 25° C.; all tubes contained 1% DMSO. Activity was quantified by phosphorimager (Molecular Dynamics) analysis of TLC-separated lipid products.
# p110α/p85α = p110α/p85α (Bos taurus, UniProt P32871); test: Lipid kinase assay of drug effects on p110α/p85α; type: biochemical
# Experimental: as §1
# p110δ/p85α, sequence (O00329 whole entry S675R): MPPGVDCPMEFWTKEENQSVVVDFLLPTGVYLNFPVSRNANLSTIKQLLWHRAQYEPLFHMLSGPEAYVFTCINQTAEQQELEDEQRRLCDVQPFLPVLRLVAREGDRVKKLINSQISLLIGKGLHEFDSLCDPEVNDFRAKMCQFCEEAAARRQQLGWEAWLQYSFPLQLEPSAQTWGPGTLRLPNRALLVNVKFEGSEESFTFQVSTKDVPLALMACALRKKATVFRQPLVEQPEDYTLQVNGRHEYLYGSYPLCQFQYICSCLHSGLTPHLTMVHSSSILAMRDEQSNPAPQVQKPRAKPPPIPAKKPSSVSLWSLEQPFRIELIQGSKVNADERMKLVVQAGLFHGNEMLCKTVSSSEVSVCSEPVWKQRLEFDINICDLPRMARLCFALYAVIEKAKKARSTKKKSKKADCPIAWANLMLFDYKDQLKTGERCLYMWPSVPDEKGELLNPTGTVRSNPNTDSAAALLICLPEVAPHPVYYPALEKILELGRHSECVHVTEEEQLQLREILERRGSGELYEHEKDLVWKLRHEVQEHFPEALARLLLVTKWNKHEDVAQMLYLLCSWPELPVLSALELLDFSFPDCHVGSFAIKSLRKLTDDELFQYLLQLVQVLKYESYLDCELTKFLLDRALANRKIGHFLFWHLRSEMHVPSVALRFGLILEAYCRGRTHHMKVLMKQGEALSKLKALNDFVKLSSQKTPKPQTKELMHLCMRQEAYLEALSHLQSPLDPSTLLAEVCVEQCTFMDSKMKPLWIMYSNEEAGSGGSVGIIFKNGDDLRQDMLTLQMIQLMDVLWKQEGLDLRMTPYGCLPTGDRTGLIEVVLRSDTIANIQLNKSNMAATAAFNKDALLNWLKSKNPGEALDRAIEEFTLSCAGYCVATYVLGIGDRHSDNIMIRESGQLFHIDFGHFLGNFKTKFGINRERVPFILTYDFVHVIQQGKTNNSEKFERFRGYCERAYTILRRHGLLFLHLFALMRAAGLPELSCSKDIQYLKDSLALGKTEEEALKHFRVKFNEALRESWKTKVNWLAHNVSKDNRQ
# p110δ/p85α, sequence (P27986 whole entry partner): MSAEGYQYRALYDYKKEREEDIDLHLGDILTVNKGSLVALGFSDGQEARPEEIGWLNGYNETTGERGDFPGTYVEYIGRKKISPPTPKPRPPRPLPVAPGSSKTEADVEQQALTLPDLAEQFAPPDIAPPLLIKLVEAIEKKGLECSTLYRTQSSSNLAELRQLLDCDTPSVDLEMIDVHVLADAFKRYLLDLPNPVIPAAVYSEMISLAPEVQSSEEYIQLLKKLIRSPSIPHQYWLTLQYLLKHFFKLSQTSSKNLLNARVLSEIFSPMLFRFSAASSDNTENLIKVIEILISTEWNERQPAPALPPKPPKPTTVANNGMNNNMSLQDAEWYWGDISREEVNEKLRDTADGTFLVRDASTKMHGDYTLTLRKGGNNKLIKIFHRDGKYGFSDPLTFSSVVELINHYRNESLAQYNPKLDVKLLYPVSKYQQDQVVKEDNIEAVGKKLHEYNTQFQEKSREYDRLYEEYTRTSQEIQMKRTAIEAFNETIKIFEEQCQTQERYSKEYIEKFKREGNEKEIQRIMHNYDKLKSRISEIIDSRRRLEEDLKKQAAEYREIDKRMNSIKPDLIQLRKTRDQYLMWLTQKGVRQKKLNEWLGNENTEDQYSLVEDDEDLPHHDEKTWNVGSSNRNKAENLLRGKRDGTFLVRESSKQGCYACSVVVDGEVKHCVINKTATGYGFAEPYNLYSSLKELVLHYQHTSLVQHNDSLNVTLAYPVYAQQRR
# p110α/p85α, sequence (P32871 whole entry): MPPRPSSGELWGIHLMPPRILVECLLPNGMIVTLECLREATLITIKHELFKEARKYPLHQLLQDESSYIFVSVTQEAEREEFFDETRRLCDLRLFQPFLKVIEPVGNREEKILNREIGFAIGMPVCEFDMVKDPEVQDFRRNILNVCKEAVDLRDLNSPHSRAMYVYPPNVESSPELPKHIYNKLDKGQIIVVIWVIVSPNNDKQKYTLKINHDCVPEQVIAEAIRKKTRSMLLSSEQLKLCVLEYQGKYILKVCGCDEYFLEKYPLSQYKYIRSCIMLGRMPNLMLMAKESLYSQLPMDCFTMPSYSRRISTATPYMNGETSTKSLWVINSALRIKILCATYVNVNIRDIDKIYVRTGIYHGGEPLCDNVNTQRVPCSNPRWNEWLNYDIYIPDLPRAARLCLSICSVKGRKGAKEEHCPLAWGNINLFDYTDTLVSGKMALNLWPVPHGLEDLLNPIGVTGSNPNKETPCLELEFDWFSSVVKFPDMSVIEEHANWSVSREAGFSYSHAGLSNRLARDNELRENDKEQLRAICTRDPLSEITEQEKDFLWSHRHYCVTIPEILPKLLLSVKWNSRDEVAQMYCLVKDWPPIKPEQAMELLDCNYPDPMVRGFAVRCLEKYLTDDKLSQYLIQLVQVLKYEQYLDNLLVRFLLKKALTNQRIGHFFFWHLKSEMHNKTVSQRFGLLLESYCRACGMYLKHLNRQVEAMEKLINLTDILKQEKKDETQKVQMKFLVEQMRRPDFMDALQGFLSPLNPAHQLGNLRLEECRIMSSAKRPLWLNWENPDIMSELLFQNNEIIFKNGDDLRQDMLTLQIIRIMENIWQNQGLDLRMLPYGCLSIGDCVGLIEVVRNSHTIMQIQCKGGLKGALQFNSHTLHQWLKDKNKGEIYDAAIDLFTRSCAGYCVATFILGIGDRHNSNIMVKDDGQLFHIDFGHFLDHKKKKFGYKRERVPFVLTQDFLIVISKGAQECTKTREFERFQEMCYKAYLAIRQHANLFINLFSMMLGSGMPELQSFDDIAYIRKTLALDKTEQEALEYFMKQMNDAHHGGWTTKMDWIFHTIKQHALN
SMILES,pIC50 (p110δ/p85α),pIC50 (p110α/p85α)
O=c1cc(N2CCOCC2)oc2c(-c3ccccc3)cccc12 [LY294002],6.30,–
COC[C@H]1OC(=O)c2coc3c2[C@@]1(C)C1=C(C3=O)[C@@H]2CCC(=O)[C@@]2(C)C[C@H]1OC(C)=O [wortmannin],–,8.30
